Laboratory results reported in patent US9351963B2, “Defensin-like molecules as novel antimicrobial agents” (UNIVERSITY OF MARYLAND, BALTIMORE, priority 2010, dated 2016).

What was measured:
[1] = tested on: Escherichia coli ATCC 25922; assay: 96-well turbidimetric antibacterial killing assay, E. coli; format: cell-based; details: E. coli ATCC 25922, 120 min exposure
Experimental: The antibacterial activity of defensin mimetics against Staphylococcus aureus ATCC 29213 and Escherichia coli 25922 was carried out in a 96-well turbidimetric assay essentially as described (Ericksen, B., Wu, Z., Lu, W., and Lehrer, R. I. (2005) Antimicrob Agents Chemother 49, 269-275) with the following modifications: compounds were exposed for 30 min to […] prior to addition of […] in 10 mM phosphate buffer containing 5% DMSO. Bacterial growth was monitored for 12 hours and data were analyzed as described (Ericksen, et al). Determination of MICs was performed by Micromyx, LLC (Kalamazoo, Mich.) according to CLSI standards (CLSI. (2009) Methods for Dilution Antimicrobial Susceptibility Tests for Bacteria That Grow Aerobically; Approved Standard—Eighth Edition.)
The inventors have previously reported on the antibacterial activity of HNP1 and all of its structurally uncompromised single alanine mutants against S. aureus (Wei, G., Pazgier, M., de Leeuw, E., Rajabi, M., Li, J., Zou, G., Jung, G., Yuan, W., Lu, W. Y., Lehrer, R. I., and Lu, W. J Biol Chem 285, 16275-16285). […] If these residues are indeed important for Lipid II binding, one would expect that replacement by alanine will not affect killing of Gram-negative bacteria. […] In particular, FIG. 12 depicts killing of E. coli by HNP-1 Lipid II single alanine mutants. Survival curves of E. coli ATCC 25922 exposed to HNP-1 or HNP-1 single alanine mutants at concentrations varying two-fold from […]. Bacteria were exposed to defensin peptides for 120 min. Each curve is the mean of two separate experiments (±S.D.). Points scored as zero survival could not be plotted.

[2] = tested on: Staphylococcus aureus ATCC 29213; details: previously reported (Wei et al., J Biol Chem 285); cited from earlier work
[3] = Surface Plasmon Resonance binding to immobilized 3-Lipid II (BIAcore); details: SPR, 10 μM, room temperature, 40 RUs 3-Lipid II
Experimental: Short-chain water-soluble Lipid II containing a lipid tail of three isoprene units was generated and purified essentially as described (Breukink, E., van Heusden, H. E., Vollmerhaus, P. J., Swiezewska, E., Brunner, L., Walker, S., Heck, A. J., and de Kruijff, B. (2003) J Biol Chem 278, 19898-19903). Typically, M. flavus vesicles (120 μmol lipid-Pi) were incubated together with 500 μmol UDP-GlcNAc, 500 μmol UDP-MurNAC-pentapeptide and 400 μmol farnesyl phosphate (3-P) in 100 mM Tris-HCl pH 8.0, 5 mM MgCl2. The incubation lasted two hours at room temperature for 3-P. The synthesis of 3-Lipid II was followed using RP-8 reversed phase TLC (Merck) developed in 75% methanol. For purification, the membranes were removed by centrifugation at 40,000×g and the supernatant was collected and loaded on a C18 HPLC column and eluted with a linear gradient from 50 mM ammonium bicarbonate to 100% methanol in 30 minutes. Farnesyl-Lipid II (3-Lipid II) eluted at approximately 60% methanol. Its identity was confirmed by mass spectroscopy.
Surface Plasmon Resonance binding experiments were carried out on a BIAcore T100 system (BIAcore Inc., Piscataway, N.Y.) at 25° C. The assay buffer was 10 mM HEPES, 150 mM NaCl, 0.05% surfactant P20, pH 7.4 (±3 mM EDTA) supplemented with 10% DMSO. […] For initial determination of binding, defensin mimetics were introduced into the flow-cells (30 μl/min) in the running buffer at 10 μM. Resonance signals were corrected for nonspecific binding by subtracting the background of the control flow-cell. After each analysis, the sensor chip surfaces were regenerated with 50 mM NaOH for 30 s at a flow rate 100 μl/min, and equilibrated with the buffer prior to next injection. For binding kinetics studies, binding isotherms were analyzed with manufacturer-supplied software for BIAcore T100.

| Substance | Bactericidal activity against E. coli relative to wild-type HNP-1 [1] | Killing of S. aureus by HNP-1 single alanine mutants [2] | Binding of HNP-1 single alanine mutants to Lipid II compared to wild-type HNP-1 [3] |
| --- | --- | --- | --- |
| Ile20: HNP-1 single alanine mutant, Ile20 replaced by alanine | comparable to the wild-type peptide | severely compromised | significant reduction of binding |
| Leu25: HNP-1 single alanine mutant, Leu25 replaced by alanine | comparable to the wild-type peptide | severely compromised | significant reduction of binding |
